Measurements: the NIST ThermoML archive (doi:10.1021/je5004719)
Numbers after ± are expanded uncertainties.

Settings: 101.33 kPa, Liquid; for speed of sound: Sing-around technique in a fixed-path interferometer; for mass density: Vibrating tube method

Compound	speed of sound (298.15 K) [m/s]	mass density (298.15 K) [kg/m3]	speed of sound (303.15 K) [m/s]	mass density (303.15 K) [kg/m3]	speed of sound (308.15 K) [m/s]	mass density (308.15 K) [kg/m3]
Cc1ccccc1C [1,2-dimethylbenzene]	1346.2 ± 0.7	875.91 ± 1	1326.2 ± 0.7	871.7 ± 1	1306.1 ± 0.7	867.48 ± 1
Cc1ccccc1Cl [2-chlorotoluene]	1298.7 ± 1	1077.3 ± 1	1280.7 ± 1	1072.5 ± 1	1262.7 ± 1	1067.6 ± 1
c1ccccc1 [benzene]	1299.4 ± 0.8	873.54 ± 1	1276.1 ± 0.77	868.2 ± 1	1252.9 ± 0.76	862.84 ± 1
C1CCOCC1 [tetrahydropyran]	1269.8 ± 0.8	879.13 ± 1	1246.8 ± 0.8	873.99 ± 1	1224.4 ± 0.8	868.83 ± 1
Cc1ccccc1 [toluene]	1304.6 ± 0.8	862.18 ± 1	1283.2 ± 0.8	857.51 ± 1	1261.8 ± 0.8	852.82 ± 1
